These results are taken from patent US8586747B2, “3,3-dimethyl tetrahydroquinoline derivatives” (Hoffmann-La Roche Inc., priority 2010, dated 2013).

For the assay, the system named is AMP-activated protein kinase (AMPK). Nature of the assay: ADP Quest assay for AMPK activators. The class given is biochemical. Also noted: key: fold AMPK activation with vs without activator at 30 µM. The following applies: fold of AMPK activation to phosphorylate SAMS peptide without and with an activator at the concentration of 30 µM. The method, then: ADP Quest™ Assay for AMPK Activators
This method evaluates AMP-activated protein kinase (AMPK) activity through detecting the accumulation of ADP product using an ADP Quest kit and determining the E30 values of the small molecular AMPK activators. ADP Quest kit (DiscoveRx, Fremont, Calif.) is stored at −20° C. before use. Before an experiment, thaw the kit (include assay buffer, ADP standard solution, reagent A and reagent B) and equilibrate to room temperature. Dispense the ADP Quest reagents into single-use aliquots and store at −20° C. The compound concentrations typically range from 0 µM to 100 µM by 2-fold dilution. AMP concentrations range from […] to 1 mM as the reference control. In an assay, thaw and equilibrate the assay buffer, reagent A and reagent B to room temperature for 30 minutes prior to use. Mix ATP, SAMS peptide substrate and compound, and place them into the 384-well assay plate. Add reagent A and B based on the assay kit protocol. Incubate the assay plate at room temperature for 30 minutes after addition the mixture followed by the addition of AMPK protein (Invitrogen, CA) to initiate the AMPK phosphorylation reaction. At the same time, reactions with AMPK activator AMP in the absence of enzyme is included as blank control. The reaction fluorescence signal is monitored and recorded on Envision in kinetic mode with the excitation wavelength of 530 nm and emission wavelength of 590 nm. The E30 value, defined as the fold of AMPK activation to phosphorylate SAMS peptide without and with an activator at the concentration of 30 µM, is calculated and analyzed using Prism 5.0.

On to `CC1(C)Cc2cc(C(=O)NS(=O)(=O)C3CC3)ccc2NC1c1ccc(F)c(N2CCOCC2)c1` (centres unmarked) [Example 58, Cyclopropanesulfonic acid [2-(4-fluoro-3-morpholin-4-yl-phenyl)-3,3-dimethyl-1,2,3,4-tetrahydro-quinoline-6-carbonyl]-amide], for which the E30 is listed as 1.22.

As to `CC1(C)Cc2cc(C(=O)NS(C)(=O)=O)ccc2NC1c1ccc(F)c(N2CCOCC2)c1` (centres unmarked) [Example 59, N-[2-(4-Fluoro-3-morpholin-4-yl-phenyl)-3,3-dimethyl-1,2,3,4-tetrahydro-quinoline-6-carbonyl]-methanesulfonamide], the E30 turned out to be 1.2.

With `Cc1ccc(F)cc1C1Nc2ccc(C(=O)NS(=O)(=O)C3CC3)cc2CC1(C)C` (centres unmarked) [Example 60, Cyclopropanesulfonic acid [2-(5-fluoro-2-methyl-phenyl)-3,3-dimethyl-1,2,3,4-tetrahydro-quinoline-6-carbonyl]-amide], the E30 was determined as 1.2.

Consider `CC1(C)Cc2cc(C(=O)NS(C)(=O)=O)ccc2NC1c1cc(F)cc(N2CCCC2)c1` (centres unmarked) [Example 61, N-[2-(3-Fluoro-5-pyrrolidin-1-yl-phenyl)-3,3-dimethyl-1,2,3,4-tetrahydro-quinoline-6-carbonyl]-methanesulfonamide], for which the E30 is 1.61.

On to `CC1(C)Cc2cc(C(=O)NS(=O)(=O)C3CC3)ccc2NC1c1cc(F)cc(N2CCCC2)c1` (centres unmarked) [Example 62, Cyclopropanesulfonic acid [2-(3-fluoro-5-pyrrolidin-1-yl-phenyl)-3,3-dimethyl-1,2,3,4-tetrahydro-quinoline-6-carbonyl]-amide], for which the E30 turned out to be 1.61.

Turning to `Cc1cc(C2Nc3ccc(C(=O)O)cc3CC2(C)C)cc(N2CCOCC2)c1` (centres unmarked) [Example 63, 3,3-Dimethyl-2-(3-methyl-5-morpholin-4-yl-phenyl)-1,2,3,4-tetrahydro-quinoline-6-carboxylic acid], the E30 is recorded as 1.56.

For `Cc1cc(C2Nc3ccc(C(=O)NS(=O)(=O)C4CC4)cc3CC2(C)C)cc(N2CCOCC2)c1` (centres unmarked) [Example 64, Cyclopropanesulfonic acid [3,3-dimethyl-2-(3-methyl-5-morpholin-4-yl-phenyl)-1,2,3,4-tetrahydro-quinoline-6-carbonyl]-amide], the E30 was found to be 1.48.

Turning to `Cc1cc(C2Nc3ccc(C(=O)NS(C)(=O)=O)cc3CC2(C)C)cc(N2CCOCC2)c1` (centres unmarked) [Example 65, N-[3,3-Dimethyl-2-(3-methyl-5-morpholin-4-yl-phenyl)-1,2,3,4-tetrahydro-quinoline-6-carbonyl]-methanesulfonamide], the E30 was determined as 1.46.

`COc1cc(C2Nc3ccc(C(=O)O)cc3CC2(C)C)cc(N2CCOCC2)c1` (centres unmarked) [Example 66, 2-(3-Methoxy-5-morpholin-4-yl-phenyl)-3,3-dimethyl-1,2,3,4-tetrahydro-quinoline-6-carboxylic acid]: the E30 amounted to 1.42.

`COc1cc(C2Nc3ccc(C(=O)NS(=O)(=O)C4CC4)cc3CC2(C)C)cc(N2CCOCC2)c1` (centres unmarked) [Example 67, Cyclopropanesulfonic acid [2-(3-methoxy-5-morpholin-4-yl-phenyl)-3,3-dimethyl-1,2,3,4-tetrahydro-quinoline-6-carbonyl]-amide] came in with an E30 of 1.38.

Regarding `COc1cc(C2Nc3ccc(C(=O)NS(C)(=O)=O)cc3CC2(C)C)cc(N2CCOCC2)c1` (centres unmarked) [Example 68, N-[2-(3-Methoxy-5-morpholin-4-yl-phenyl)-3,3-dimethyl-1,2,3,4-tetrahydro-quinoline-6-carbonyl]-methanesulfonamide], the E30 came to 1.33.

As to `CC1(C)Cc2cc(C(=O)NS(C)(=O)=O)ccc2NC1c1cc(C#N)cc(N2CCOCC2)c1` (centres unmarked) [Example 69, N-[2-(3-Cyano-5-morpholin-4-yl-phenyl)-3,3-dimethyl-1,2,3,4-tetrahydro-quinoline-6-carbonyl]-methanesulfonamide], the E30 was found to be 1.28.

In turn, `CC1(C)Cc2cc(C(=O)NS(=O)(=O)C3CC3)ccc2NC1c1cc(F)cc(C2CCCCC2)c1` (centres unmarked) [Example 70, Cyclopropanesulfonic acid [2-(3-cyclohexyl-5-fluoro-phenyl)-3,3-dimethyl-1,2,3,4-tetrahydro-quinoline-6-carbonyl]-amide] registered an E30 of 1.23.

Turning to `CC1(C)Cc2cc(C(=O)O)ccc2NC1c1cc(F)cc(N2CCNCC2)c1` (centres unmarked) [Example 71, 2-(3-Fluoro-5-piperazin-1-yl-phenyl)-3,3-dimethyl-1,2,3,4-tetrahydro-quinoline-6-carboxylic acid], the E30 came out at 1.22.

In the case of `CC1(C)Cc2cc(C(=O)O)ccc2NC1c1ccc(N2CCOCC2)cc1` (centres unmarked) [Example 72, 3,3-Dimethyl-2-(4-morpholin-4-yl-phenyl)-1,2,3,4-tetrahydro-quinoline-6-carboxylic acid], the E30 was found to be 1.21.

As to `CC1(C)Cc2cc(C(=O)NS(=O)(=O)C3CC3)ccc2NC1c1ccc(N2CCOCC2)cc1` (centres unmarked) [Example 73, Cyclopropanesulfonic acid [3,3-dimethyl-2-(4-morpholin-4-yl-phenyl)-1,2,3,4-tetrahydro-quinoline-6-carbonyl]-amide], the E30 was found to be 1.21.

In turn, `CC1(C)Cc2cc(C(=O)NS(C)(=O)=O)ccc2NC1c1ccc(N2CCOCC2)cc1` (centres unmarked) [Example 74, N-[3,3-Dimethyl-2-(4-morpholin-4-yl-phenyl)-1,2,3,4-tetrahydro-quinoline-6-carbonyl]-methanesulfonamide] displayed an E30 of 1.19.

Turning to `CC(C)N1CCN(c2cc(F)cc(C3Nc4ccc(C(=O)NS(C)(=O)=O)cc4CC3(C)C)c2)CC1` (centres unmarked) [Example 75, N-{2-[3-Fluoro-5-(4-isopropyl-piperazin-1-yl)-phenyl]-3,3-dimethyl-1,2,3,4-tetrahydro-quinoline-6-carbonyl}-methanesulfonamide], the E30 was 1.19.

`CC1(C)Cc2cc(C(=O)O)ccc2NC1c1cc(F)cc(N2CCCC2=O)c1` (centres unmarked) [Example 76, 2-[3-Fluoro-5-(2-oxo-pyrrolidin-1-yl)-phenyl]-3,3-dimethyl-1,2,3,4-tetrahydro-quinoline-6-carboxylic acid] returned an E30 of 1.47.

Consider `CC1(C)Cc2cc(C(=O)NS(C)(=O)=O)ccc2NC1c1cc(F)cc(N2CCCC2=O)c1` (centres unmarked) [Example 77, N-{2-[3-fluoro-5-(2-oxo-pyrrolidin-1-yl)-phenyl]-3,3-dimethyl-1,2,3,4-tetrahydro-quinoline-6-carbonyl}-methanesulfonamide], for which the E30 is 1.42.

The compound `COC(=O)c1cc(Cl)cc2c1NC(c1cccc(NC(C)(C)C(=O)O)c1)C(C)(C)C2` (centres unmarked) [Example 78, 2-[3-(1-Carboxy-1-methyl-ethylamino)-phenyl]-6-chloro-3,3-dimethyl-1,2,3,4-tetrahydro-quinoline-8-carboxylic acid methyl ester] displayed an E30 of 1.79.

For the compound `CNC(=O)C(C)(C)Nc1cccc(C2Nc3c(cc(Cl)cc3C(=O)O)CC2(C)C)c1` (centres unmarked) [Example 79, 6-Chloro-3,3-dimethyl-2-[3-(1-methyl-1-methylcarbamoyl-ethylamino)-phenyl]-1,2,3,4-tetrahydro-quinoline-8-carboxylic acid], the E30 is 1.33.

For `CC(C)(Nc1cccc(C2Nc3c(cc(Cl)cc3C(=O)O)CC2(C)C)c1)C(=O)O` (centres unmarked) [Example 80, 2-[3-(1-Carboxy-1-methyl-ethylamino)-phenyl]-6-chloro-3,3-dimethyl-1,2,3,4-tetrahydro-quinoline-8-carboxylic acid], the E30 turned out to be 1.72.

In turn, `CC(=O)N1CCN(c2cccc(C3Nc4c(cc(Cl)cc4C(=O)O)CC3(C)C)c2)CC1` (centres unmarked) [Example 81, 2-[3-(4-Acetyl-piperazin-1-yl)-phenyl]-6-chloro-3,3-dimethyl-1,2,3,4-tetrahydro-quinoline-8-carboxylic acid] gave an E30 of 2.85.

For `Cc1ccccc1N1CCN(c2cccc(C3Nc4c(cc(Cl)cc4C(=O)O)CC3(C)C)c2)CC1` (centres unmarked) [Example 82, 6-Chloro-3,3-dimethyl-2-[3-(4-o-tolyl-piperazin-1-yl)-phenyl]-1,2,3,4-tetrahydro-quinoline-8-carboxylic acid], the E30 was found to be 1.5.

On to `CC(C)(C)c1ccc(-c2cccc(C3Nc4ccc(C(=O)NS(C)(=O)=O)cc4CC3(C)C)c2)cc1` (centres unmarked) [Example 83, N-[2-(4′-tert-Butyl-biphenyl-3-yl)-3,3-dimethyl-1,2,3,4-tetrahydro-quinoline-6-carbonyl]-methanesulfonamide], for which the E30 came out at 1.35.

`CC(C)Oc1ccc(-c2cccc(C3Nc4ccc(C(=O)O)cc4CC3(C)C)c2)cc1` (centres unmarked) [Example 84, 2-(4′-Isopropoxy-biphenyl-3-yl)-3,3-dimethyl-1,2,3,4-tetrahydro-quinoline-6-carboxylic acid]: the E30 was 1.25.

In turn, `CC(C)Oc1ccc(-c2cccc(C3Nc4ccc(C(=O)NS(C)(=O)=O)cc4CC3(C)C)c2)cc1` (centres unmarked) [Example 85, N-[2-(4′-Isopropoxy-biphenyl-3-yl)-3,3-dimethyl-1,2,3,4-tetrahydro-quinoline-6-carbonyl]-methanesulfonamide] yielded an E30 of 1.29.

`CC(C)Oc1ccc(-c2cccc(C3Nc4ccc(C(=O)NS(=O)(=O)C5CC5)cc4CC3(C)C)c2)cc1` (centres unmarked) [Example 86, Cyclopropanesulfonic acid [2-(4′-isopropoxy-biphenyl-3-yl)-3,3-dimethyl-1,2,3,4-tetrahydro-quinoline-6-carbonyl]-amide] yielded an E30 of 2.74.
